The record followed here is patent US20260115331A1, “PET IMAGING OF BACTERIAL INFECTION WITH A PET PROBE” (Mayo Foundation for Medical Education and Research, priority 2022, published 2026).

The test can be described thus: PET image analysis (SUV) of inflamed tibia in foreign body inflammation rat model. Conditions: each time point up to 120 minutes (FIG. 27). It counts as in vivo, rats. As for the experimental part: The PET probe [^68Ga]Ga-H3P2O8 was evaluated in methicillin-resistant S. aureus (MRSA) foreign-body osteomyelitis in the left tibia with a stainless steel Kirschner wire (K-wire) implant in male Wister rats, following a previously established protocol [Ref. 17]. Briefly, a 1 cm incision was made on the medial tibia and the bone exposed. A 1.5 mm hole was drilled, 0.01 mL of arachidonic acid (a sclerosing agent) and 0.05 mL of a suspension containing MRSA DRL-6169 at 10^8 cfu/mL was injected into the bone. A 5 mm threaded stainless-steel K-wire was inserted. The hole was closed with dental gypsum and the site closed. After implantation, the muscle and fascia were closed with 3-0 vicryl using simple interrupted sutures. The skin was closed with sterile wound clips and VetBond. The wound was sprayed with Aluspray and Chew Guard. After 7 days of implantation of wire, the animal was put on iron-deficient diet for 7 days and on the day of imaging, the animals were fasted for 4 hours prior to the injection of the PET probe. [^68Ga]Ga-H3P2O8 (32.81±6.28 MBq, n=18) were injected into the rat model via tail vein injection. The rat model was either a normal rat model or an osteomyelitis foreign body rat model or an inflamed foreign body rat model. PET/CT images were acquired at 15 minutes, 30 minutes, 60 minutes, and 120 minutes post-injection using Siemens Inveon MicroPET/CT Scanner (see FIGS. 17, 18, and Table 2).
To assess the preferential uptake of novel [^68Ga]Ga-H3P2O8 PET probe in infection as compared to inflammation, the same surgery and imaging was performed but omitted the MRSA. […] The probe [^68Ga]Ga-H3P2O8 was also successfully used to detect thigh infection caused by E coli in a mouse model.
To further investigate the selectivity of [^68Ga]Ga-H3P2O8 for imaging infection over inflammation, this novel probe was compared to other PET imaging probes, [^68Ga]Ga-Citrate and [^18F]FDG in an inflammation model. In a side-by-side study, all three probes were used to image inflammation (i.e., an inflamed tibia) in an osteomyelitis foreign body rat model.

Regarding `OC[C@H]1OC(O)[C@H]([18F])[C@@H](O)[C@@H]1O` (some centres unmarked) [[^18F]FDG, [^18F]Fluorodeoxyglucose], the “difference in mean SUV between the probes in inflamed tibia” value is listed as “no significant difference”.
`O=C([O-])CC(O)(CC(=O)[O-])C(=O)[O-].[Ga+3]` [[^68Ga]Ga-Citrate]: the “difference in mean SUV between the probes in inflamed tibia” value was “no significant difference”.
